Experimental findings from patent publication US20170205426A1, “RAPID MASS SPECTROMETRY METHODS FOR ANTIMICROBIAL SUSCEPTIBILITY TESTING USING TOP-DOWN MASS SPECTROMETRY” (priority 2016, published 2017) are described below.

Test [1] has as its system KPC-2. Put plainly: Bottom-up mass spectrometry sequence coverage of KPC-2 in K. pneumoniae cultures induced with ertapenem. The following applies: for KPC-2 Sequence Coverage: induced with 0.5 mM ertapenem. The test is classed as cell-based, Klebsiella pneumoniae. The procedure: (§1) In some embodiments, a sample of the microbial culture or biological sample is exposed to conditions that induce antimicrobial resistance in the microorganisms prior to testing. In other embodiments, a sample of the microbial culture or biological sample is tested without intentionally inducing antimicrobial resistance in the microorganisms. In certain embodiments, many resistance mechanisms may not have to be induced in order to detect the target proteins of interest. For example, we have observed that the production of PBP2a from MRSA samples varies in its baseline expression without induction. In examining expression of carbapenem-resistant Enterobacteriaceae (CRE)-related resistances, several strains of Klebsiella pneumoniae that contained different combinations of the resistance marker beta-lactamase were tested to determine the effect on detection for induced and non-induced samples. Table 1 lists various resistant and susceptible strains of K. pneumoniae which were tested with 0.5 mM of ertapenem as an inducer. In these experiments, bottom-up mass spectrometry was used to measure sequence coverage of two representative beta-lactamases, KPC-2 and CTX-M15. The percent sequence coverage observed is an approximate measure of the amount of a given protein present in any given extract. The higher the percent sequence coverage observed, the higher the level of that given protein in an extract.

The test system of test [2] is CTX-M15. Put plainly: Bottom-up mass spectrometry sequence coverage of CTX-M15 in K. pneumoniae cultures induced with ertapenem. The test is classed as cell-based, Klebsiella pneumoniae. The following applies: for CTX-M15 Sequence Coverage: induced with 0.5 mM ertapenem. As to the method:
as §1

Setting [3] is: variety of K. pneumoniae strains, 0.5 mM ertapenem as inducer.

The structures appear in SMILES notation.

On to `C[C@@H](O)[C@H]1C(=O)N2C(C(=O)O)=C(S[C@@H]3CN[C@H](C(=O)Nc4cccc(C(=O)O)c4)C3)[C@H](C)[C@H]12` [ertapenem], for which the “KPC-2 Sequence Coverage” value in test [1] (strain 13883 (Susceptible)) is “not detected”; in test [1] (strain BAA-1903 (Resistant)), 73% ± 0%; in test [1] (strain BAA-1905 (Resistant)), 85% ± 5%; in test [1] (strain BAA-2473 (Resistant)), “not detected”; in test [1] (strain BAA-2578 (Resistant)), “not detected”. In addition, the “percent sequence coverage of KPC-2, induced versus non-induced” value in test [1] (setting [3]) was “the same regardless of induction”. Also, the “CTX-M15 Sequence Coverage” value in test [2] (strain 13883 (Susceptible)) is “not detected”; in test [2] (strain BAA-1903 (Resistant)), “not detected”; in test [2] (strain BAA-1905 (Resistant)) it was “not detected”; in test [2] (strain BAA-2473 (Resistant)), 70% ± 0%; in test [2] (strain BAA-2578 (Resistant)) it was 60% ± 2%. Besides, the “percent sequence coverage of CTX-M15, induced versus non-induced” value in test [2] (setting [3]) was “the same regardless of induction”.
